The structures appear in SMILES notation.

This assay has as its system SNB-19. Description: Antitumor activity against human SNB19 cells after 24 hrs. The assay is classed as functional, cell-based. As to conditions: SNB-19, 24 h.

Turning to `Cc1onc(-c2c3ccccc3c(Cl)c3ccccc23)c1C(=O)Nc1cc(C(=O)NCCCN(C)C)n(C)c1`, it took 6.21 µM to reach half-maximal inhibition (IC50).
